Data set [1] concerns the target T1, Adenylate kinase isoenzyme 1 (Rattus norvegicus) (UniProt P39069).
T1 sequence (whole entry): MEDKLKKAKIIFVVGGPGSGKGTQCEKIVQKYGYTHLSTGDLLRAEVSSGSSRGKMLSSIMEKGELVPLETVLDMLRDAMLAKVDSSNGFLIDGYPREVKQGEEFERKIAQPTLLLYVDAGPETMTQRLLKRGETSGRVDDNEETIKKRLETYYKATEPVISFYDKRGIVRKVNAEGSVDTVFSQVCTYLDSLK
Nature of the data set: Relative Vmax value to Adenylate kinase M isoenzyme (adenylate kinase 1, AK1).

Data set [2] addresses Adenylate kinase 2, mitochondrial (Rattus norvegicus) (UniProt P29410). Description: Relative Vmax value to rat adenylate kinase II.
For data set [3], the target named is GTP:AMP phosphotransferase AK3, mitochondrial (Rattus norvegicus) (UniProt P29411). Description: Inhibitory constant of compound with Rat adenylate kinase IIl at 1.3 mM concentration in the presence of 0.65 mM AMP.
Chain of GTP:AMP phosphotransferase AK3, mitochondrial (Rattus norvegicus) (P29411 whole entry): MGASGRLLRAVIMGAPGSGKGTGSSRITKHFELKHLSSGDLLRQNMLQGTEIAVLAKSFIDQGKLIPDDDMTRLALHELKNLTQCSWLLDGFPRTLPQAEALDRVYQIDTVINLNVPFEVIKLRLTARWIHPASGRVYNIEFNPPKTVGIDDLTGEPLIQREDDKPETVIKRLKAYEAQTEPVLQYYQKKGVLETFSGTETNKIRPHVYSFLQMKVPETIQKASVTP
Data set [4] shares this target. Description: Relative Vmax value to rat adenylate kinase III.
In data set [5] the target is T1, Adenylate kinase isoenzyme 1 (Rattus norvegicus). Nature of the data set: Inhibitory constant of compound with Rat adenylate kinase M isozyme at 1.3 mM concentration in the presence of 0.65 mM AMP.
Data set [6] deals with CCC[C@H](OP(=O)(O)O)[C@H]1OC(n2cnc3c(N)ncnc32)[C@H](O)[C@@H]1O. Nature of the data set: (§1) Concentration of compound for half-maximal velocity to Adenylate kinase II.
Data set [7] deals with CC[C@H](OP(=O)(O)O)[C@H]1OC(n2cnc3c(N)ncnc32)[C@H](O)[C@@H]1O. The data set is described as §1.
The subject of data set [8] is CNc1nc(N)c2ncn([C@@H]3O[C@H](COP(=O)(O)O)[C@@H](O)[C@H]3O)c2n1. The description is as §1.
Data set [9] deals with C[C@@H]1[C@H](O)[C@@H](COP(=O)(O)O)O[C@H]1n1cnc2c(N)ncnc21. Described as §1.
The test system of data set [10] is Nc1nc(Cl)nc2c1ncn2[C@@H]1O[C@H](COP(=O)(O)O)[C@@H](O)[C@H]1O. The description is as §1.
The test system of data set [11] is Nc1nc(N)c2ncn([C@@H]3O[C@H](COP(=O)(O)O)[C@@H](O)[C@H]3O)c2n1. The data set is described as §1.
Data set [12] relates to Nc1ncnc2c1ncn2[C@@H]1O[C@H](/C=C/P(=O)(O)O)[C@@H](O)[C@H]1O. The data set is described as §1.
For data set [13], the system named is Nc1ncnc2c1ncn2[C@@H]1O[C@H](CCP(=O)(O)O)[C@@H](O)[C@H]1O. The description is as §1.
The test system of data set [14] is Nc1ncnc2c1ncn2[C@@H]1O[C@H](COP(=O)(O)O)[C@@H](O)[C@H]1O. Described as §1.
Data set [15] deals with C[C@H](OP(=O)(O)O)[C@H]1OC(n2cnc3c(N)ncnc32)[C@H](O)[C@@H]1O. Described as §1. The format is functional.
Data set [16] deals with Adenylate kinase 2, mitochondrial (Rattus norvegicus) (UniProt P29410). Nature of the data set: Relative Vmax value to Adenylate kinase II.
Data set [17] in a line: Relative inhibition index was the ratio between AK-M and AK II. Type of data set: functional.
Data set [18] in a line: Relative inhibition index was the ratio between AK-M and AK III. The format is functional.
Data set [19] deals with Adenylate kinase 2, mitochondrial (Rattus norvegicus) (UniProt P29410). Nature of the data set: Inhibition index was the ratio between KM of AMP and Ki of AK II. Type of data set: functional.
Data set [20] concerns the target GTP:AMP phosphotransferase AK3, mitochondrial (Rattus norvegicus) (UniProt P29411). Description: Inhibition index was the ratio between KM of AMP and Ki of AK III. Type of data set: functional.
In data set [21] the target is T1, Adenylate kinase isoenzyme 1 (Rattus norvegicus). Nature of the data set: Inhibition index was the ratio between KM of AMP and Ki of AK M. The format is functional.
For data set [22], the target named is GTP:AMP phosphotransferase AK3, mitochondrial (Rattus norvegicus) (UniProt P29411). Description: Relative Vmax value to Adenylate kinase III.

As a reminder, the inhibition is the percentage by which the read-out fell short of the control. As for `CNc1ncnc2c1ncn2[C@@H]1O[C@H](COP(=O)(O)O)[C@@H](O)[C@H]1O`, the Relative Vmax in data set [1], in [2] and in data set [4] was 0 each time. The inhibition in [3] and in data set [5] was 15% each time.
A word on the Km: it is the substrate concentration at which the rate is half of its maximum. On to “Adenylate kinase 2, mitochondrial (Rattus norvegicus) (from UniProt P29410)”, for which the Km in data set [6] is 1100 µM; in data set [7] it was 1400 µM; in data set [8], 3000 µM; in data set [9], 910 µM; in [10], 1600 µM; in [11] it was 1600 µM. Also, the Km in [12] was 1600 µM; in data set [13] it was 2500 µM; in data set [14], 80 µM; in data set [15], 1300 µM.
Regarding `CCC[C@H](OP(=O)(O)O)[C@H]1OC(n2cnc3c(N)ncnc32)[C@H](O)[C@@H]1O` (some centres undefined), the Relative Vmax in [1] is above 0; in data set [16], 1.3; in data set [4] it was 0.82. In addition, the values for the Relative inhibition index in data set [17] and in data set [18] were 5.6 and 4.3, respectively. The Inhibition index in [19] is 0.073; in data set [20] it was 0.096; in [21], 0.41.
In the case of `Nc1ncnc2c1ncn2[C@@H]1O[C@H](/C=C/P(=O)(O)O)[C@@H](O)[C@H]1O`, the Relative Vmax in data set [1] turned out to be 2.1; in [2] it was 12; in [22] it was 13. For the same compound, the Relative inhibition index is 5.8 in data set [17] and 5.1 in data set [18]. In addition, the values for the Inhibition index in data set [19], in [20] and in data set [21] were 0.05, 0.057 and 0.29, respectively.
As for `CO[C@H]1[C@@H](O)[C@H](n2cnc3c(N)ncnc32)O[C@@H]1COP(=O)(O)O`, the Relative Vmax in data set [1], in data set [2] and in data set [4] was above 0 each time. Further, the Relative inhibition index worked out at 4 in data set [17] and 2.6 in data set [18]. Besides, the Inhibition index in data set [19] was determined as 0.085; in [20] it was 0.13; in data set [21] it was 0.34.
As to `CC[C@H](OP(=O)(O)O)[C@H]1OC(n2cnc3c(N)ncnc32)[C@H](O)[C@@H]1O` (some centres undefined), the Relative Vmax in [1] was above 0; in data set [16] it was 2.4; in data set [4] it was above 0. In addition, the Relative inhibition index in data set [17] turned out to be 11.2. The Inhibition index in [19] worked out at 0.057; in [21] it was 0.64.
As to `C[C@H](OP(=O)(O)O)[C@H]1OC(n2cnc3c(N)ncnc32)[C@H](O)[C@@H]1O` (some centres undefined), the Relative Vmax in data set [1] was found to be 1; in [2], 7; in [4], 8. Moreover, the figures for the Relative inhibition index in data set [17] and in [18] were 4.7 and 2.8, respectively. The Inhibition index in data set [19] amounted to 0.062; in data set [20] it was 0.1; in data set [21], 0.28.
In the case of `Nc1nc(Cl)nc2c1ncn2[C@@H]1O[C@H](COP(=O)(O)O)[C@@H](O)[C@H]1O`, the Relative Vmax turned out to be 0.13 in data set [1], 5.8 in [2] and 7.5 in data set [4]. In addition, the Relative inhibition index in data set [17] and in [18] was 4.2 each time. For the same compound, the Inhibition index turned out to be 0.05 in data set [19], 0.05 in [20] and 0.21 in data set [21].
For the compound `CC1(C)O[C@@H]2[C@H](O1)[C@@H](COP(=O)(O)O)O[C@H]2n1cnc2c(N)ncnc21`, the Relative Vmax in [1], in [2] and in data set [4] was 0 each time. The Relative inhibition index in data set [17] is 6.6; in [18] it was 5.7. The values for the Inhibition index in data set [19], in data set [20] and in data set [21] were 0.038, 0.044 and 0.25, respectively.
